Measurements from US8883801B2, “Substituted pyrazolo[1,5-a]pyrimidines as mTOR inhibitors” (Merck Sharp & Dohme Corp., priority 2010, dated 2014).
Like-named read-outs stand apart in the source and are kept apart here.

What was measured:
human mTOR enzyme = human mTOR enzyme (Homo sapiens, UniProt P42345); assay: HTRF mTOR enzyme (kinase) assay; format: biochemical; conditions: 5 μM ATP, 0.2 μM GST-S6K, read-out: hMTOR IC50
[1] = test system: mTORC2 activity: phosphorylated AKT Ser473 (pAKT S473) in PC3 cells; assay: mTOR target engagement assay, immunofluorescent cell-based, mTORC2 readout; conditions: Homo sapiens, PC-3, 1.5 h, 90 min treatment
Description: The target engagement of mTOR kinase inhibitors was evaluated using an immunofluorescent cell-based assay. In this assay, inhibition of mTORC1 activity was measured by the reduction in the level of phosphorylated 4E-BP1Thr37/46 (p4E-BP1 Thr37/46), and inhibition of mTORC2 activity was measured by the reduction of phosphorylated AKTSer473 (pAKT S473).
PC3 cells (prostate tumor cell-line that contains a mutation in the tumor suppressor PTEN, that promotes the phosphorylation and activation of AKT and 4E-BP1) were used in the immunofluorescence assay. PC3 cells were seeded on 384 well plates (black clear bottom, Matrix #4332) overnight. PC3 cells were then treated with 40 μl of the serially diluted test compounds (in 5% fetal bovine serum, F12 medium containing 0.25% DMSO) for ninety minutes at 37° C. The test compound solution was removed, and the plates were washed gently two times with 25 μl phosphate buffered saline (PBS). The cells were fixed by adding 25 μl of Prefer reagent (from Anatech LTD, Cat#414, a glyoxal fixative for fixing proteins within a cell) for sixty minutes followed by three washes with PBS. 5% Goat serum in PBS/0.3% Triton was used to block non-specific binding (60 minutes).
The primary antibodies targeting pAKT S473 and p4E-BP1 Thr37/46 were diluted into PBS/0.3% Triton and incubated with the cells overnight at 4° C. The antibodies targeting pAKTS473 (Cat#4085, Cell signaling) and p4E-BP1 Thr37/46 (Cat#2855, Cell signaling) were used at a 1:100 dilution. Plates were washed three times with PBS/0.1% Tween 20 before adding the secondary antibody at a 1:200 dilution. (goat anti-rabbit containing a fluorescent label, Alexa Fluor 488, Cat#A11008, Invitrogen) in PBS/0.3% Triton for 60 minutes.
Finally, the plates were washed three times with PBS/0.1% Tween 20 and the fluorescent intensity was read using an Analyst HT from Molecular Devices. The fluorescent intensity values from the serially diluted compound treatment group were analyzed using the Xlfit 4 program ([…]) (Formula 205: Y=Bottom+(Top-Bottom)/(1+(IC50/X)^Hillslope) to generate the IC50 value. Where Top is the maximum signal without Compound (+DMSO only) and Bottom represents maximum inhibition. Y is the fluorescence at some compound concentration. The control used to determine the fluorescent intensities for 100% pAKT S473 or 100% phosphorylated p4E-BP1 Thr37/46 were measured from untreated wells that contained only DMSO, instead of test compound.

Chain of human mTOR enzyme (P42345 1360-2549 limits assumed): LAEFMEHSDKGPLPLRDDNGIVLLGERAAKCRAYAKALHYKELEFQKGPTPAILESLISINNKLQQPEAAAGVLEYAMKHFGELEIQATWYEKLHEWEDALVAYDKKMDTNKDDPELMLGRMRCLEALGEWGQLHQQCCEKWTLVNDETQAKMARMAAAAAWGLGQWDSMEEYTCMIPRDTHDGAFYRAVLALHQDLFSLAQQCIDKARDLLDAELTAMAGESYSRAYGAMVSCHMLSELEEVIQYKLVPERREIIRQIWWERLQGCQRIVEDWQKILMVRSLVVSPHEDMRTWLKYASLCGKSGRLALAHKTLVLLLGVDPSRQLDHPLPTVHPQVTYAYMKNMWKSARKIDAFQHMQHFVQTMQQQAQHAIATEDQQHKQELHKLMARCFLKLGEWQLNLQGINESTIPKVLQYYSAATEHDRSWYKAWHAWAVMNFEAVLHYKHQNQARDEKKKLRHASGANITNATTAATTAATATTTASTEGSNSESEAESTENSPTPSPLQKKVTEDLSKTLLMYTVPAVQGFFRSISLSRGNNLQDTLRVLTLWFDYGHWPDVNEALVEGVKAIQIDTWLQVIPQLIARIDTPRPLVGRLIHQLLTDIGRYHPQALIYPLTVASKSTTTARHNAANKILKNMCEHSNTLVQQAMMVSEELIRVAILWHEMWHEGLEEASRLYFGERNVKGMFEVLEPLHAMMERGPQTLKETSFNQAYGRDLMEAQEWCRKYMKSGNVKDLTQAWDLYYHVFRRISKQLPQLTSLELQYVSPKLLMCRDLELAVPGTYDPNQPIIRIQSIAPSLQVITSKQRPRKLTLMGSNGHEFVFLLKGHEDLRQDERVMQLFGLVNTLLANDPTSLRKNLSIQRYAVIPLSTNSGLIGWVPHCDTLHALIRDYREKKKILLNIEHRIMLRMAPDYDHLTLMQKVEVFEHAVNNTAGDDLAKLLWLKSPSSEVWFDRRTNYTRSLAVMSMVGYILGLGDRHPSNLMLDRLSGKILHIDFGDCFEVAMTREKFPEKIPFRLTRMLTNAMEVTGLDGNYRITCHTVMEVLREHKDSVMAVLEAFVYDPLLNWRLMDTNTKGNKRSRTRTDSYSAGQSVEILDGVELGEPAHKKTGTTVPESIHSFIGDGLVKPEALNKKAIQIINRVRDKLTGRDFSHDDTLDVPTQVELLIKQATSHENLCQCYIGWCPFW

Row | Compound | IC50 (human mTOR enzyme; rated class) [µM] | IC50 ([1]; rated class) [µM] | IC50 (human mTOR enzyme; numeric value) [µM] | IC50 ([1]; numeric value) [µM]
1 | Nc1c(Br)c(C2CCC(N)(C(=O)O)CC2)nc2c(-c3ccc(-c4ccccc4)nc3)cnn12 (stereo not shown) [Compound 73, 1-amino-4-(7-amino-6-bromo-3-(6-phenylpyridin-3-yl)pyrazolo[1,5-a]pyrimidin-5-yl)cyclohexanecarboxylic acid] | 0.001 to 0.1 | 5 to 15 | – | –
2 | N#CC1(O)CCC(c2nc3c(-c4ccc(-c5ccccc5)nc4)cnn3c(N)c2Br)CC1 (stereo not shown) [Compound 74, 4-(7-amino-6-bromo-3-(6-phenylpyridin-3-yl)pyrazolo[1,5-a]pyrimidin-5-yl)-1-hydroxycyclohexanecarbonitrile] | 0.001 to 0.1 | 2 to 5 | – | –
3 | COC1(C#N)CCC(c2nc3c(-c4ccc(-c5ccccc5)nc4)cnn3c(N)c2Br)CC1 (stereo not shown) [Compound 75, 4-(7-amino-6-bromo-3-(6-phenylpyridin-3-yl)pyrazolo[1,5-a]pyrimidin-5-yl)-1-methoxycyclohexane-carbonitrile] | 0.001 to 0.1 | 2 to 5 | – | –
4 | Nc1c(Br)c([C@H]2CC[C@](O)(CC(=O)O)CC2)nc2c(-c3ccc(-c4ccccc4)nc3)cnn12 [Compound 77, 2-((1S,4S)-4-(7-amino-6-bromo-3-(6-phenylpyridin-3-yl)pyrazolo[1,5-a]pyrimidin-5-yl)-1-hydroxycyclohexyl)-acetic acid] | 0.001 to 0.1 | 1 to 2 | – | –
5 | Nc1c(Br)c([C@H]2CC[C@@](O)(CC(=O)O)CC2)nc2c(-c3cnn(-c4ccccc4)c3)cnn12 [Compound 79, 2-((1R,4R)-4-(7-amino-6-bromo-3-(1-phenyl-1H-pyrazol-4-yl)pyrazolo[1,5-a]pyrimidin-5-yl)-1-hydroxycyclohexyl)-acetic acid] | 0.001 to 0.1 | 0.1 to 1 | – | –
6 | COC1(CO)CCC(c2nc3c(-c4ccc(-c5ccccc5)nc4)cnn3c(N)c2Br)CC1 (stereo not shown) [Compound 82, (4-(7-amino-6-bromo-3-(6-phenylpyridin-3-yl)pyrazolo[1,5-a]pyrimidin-5-yl)-1-methoxycyclohexyl)methanol] | 0.001 to 0.1 | 0.1 to 1 | – | –
7 | COCCOC1(CO)CCC(c2nc3c(-c4cnn(-c5ccccc5)c4)cnn3c(N)c2Br)CC1 (stereo not shown) [Compound 83, (4-(7-amino-6-bromo-3-(1-phenyl-1H-pyrazol-4-yl)pyrazolo[1,5-a]pyrimidin-5-yl)-1-(2-methoxyethoxy)-cyclohexyl)methanol] | 0.001 to 0.1 | 1 to 2 | – | –
8 | CO[C@]1(CO)CC[C@@H](c2nc3c(-c4ccc(-c5ccccc5)nc4)cnn3c(N)c2C(C)=O)CC1 [Compound 84, 1-(7-amino-5-((1R,4R)-4-(hydroxymethyl)-4-methoxycyclohexyl)-3-(6-phenylpyridin-3-yl)pyrazolo[1,5-a]pyrimidin-6-yl)ethanone] | 0.001 to 0.1 | 0.1 to 1 | – | –
9 | CO[C@]1(CO)CC[C@H](c2nc3c(-c4ccc(-c5ccccc5)nc4)cnn3c(N)c2C(C)=O)CC1 [Compound 85, 1-(7-amino-5-((1S,4S)-4-(hydroxymethyl)-4-methoxycyclohexyl)-3-(6-phenylpyridin-3-yl)pyrazolo[1,5-a]pyrimidin-6-yl)ethanone] | 0.001 to 0.1 | 0.1 to 1 | – | –
10 | COCCOC1(CO)CCC(c2nc3c(-c4ccc(-c5ccccc5)nc4)cnn3c(N)c2C(C)=O)CC1 (stereo not shown) [Compound 86, 1-(7-amino-5-(4-(hydroxymethyl)-4-(2-methoxyethoxy)-cyclohexyl)-3-(6-phenylpyridin-3-yl)pyrazolo[1,5-a]pyrimidin-6-yl)ethanone] | 0.001 to 0.1 | 0.1 to 1 | – | –
11 | COCCOC1(CO)CCC(c2nc3c(-c4cnn(-c5ccccc5)c4)cnn3c(N)c2C(C)=O)CC1 (stereo not shown) [Compound 87, 1-(7-amino-5-(4-(hydroxymethyl)-4-(2-methoxyethoxy)-cyclohexyl)-3-(1-phenyl-1H-pyrazol-4-yl)pyrazolo[1,5-a]pyrimidin-6-yl)ethanone] | 0.001 to 0.1 | 0.1 to 1 | – | –
12 | COCCO[C@]1(C(=O)NN)CC[C@@H](c2nc3c(-c4cnn(-c5ccccc5)c4)cnn3c(N)c2S(C)(=O)=O)CC1 [Compound 107, (1R,4R)-4-(7-amino-6-(methylsulfonyl)-3-(1-phenyl-1H-pyrazol-4-yl)pyrazolo[1,5-a]pyrimidin-5-yl)-1-(2-methoxyethoxy)-cyclohexane-carbohydrazide] | 0.001 to 0.1 | 0.1 to 1 | – | –
13 | CC(=O)c1c(C2CCC(CO)(C(=O)O)CC2)nc2c(-c3cnn(-c4ccccc4)c3)cnn2c1N (stereo not shown) [Compound 132, 4-(6-acetyl-7-amino-3-(1-phenyl-1H-pyrazol-4-yl)pyrazolo[1,5-a]pyrimidin-5-yl)-1-(hydroxymethyl)cyclohexanecarboxylic acid] | 0.001 to 0.1 | 0.1 to 1 | – | –
14 | Nc1c(Br)c(C2CCC(O)(CO)CC2)nc2c(-c3ccc(-c4ccccc4)nc3)cnn12 (stereo not shown) [Compound 134, 4-(7-amino-6-bromo-3-(6-phenylpyridin-3-yl)pyrazolo[1,5-a]pyrimidin-5-yl)-1-(hydroxymethyl)cyclohexanol] | – | – | 0.00737 | 0.209
15 | Nc1c(Br)c(C2CCC(O)(CO)CC2)nc2c(-c3cnn(-c4ccccc4)c3)cnn12 (stereo not shown) [Compound 135, 4-(7-amino-6-bromo-3-(1-phenyl-1H-pyrazol-4-yl)pyrazolo[1,5-a]pyrimidin-5-yl)-1-(hydroxymethyl)-cyclohexanol] | 0.001 to 0.1 | 0.1 to 1 | – | –

Second part, the compound after the results:

Row | IC50 (human mTOR enzyme; rated class) [µM] | IC50 ([1]; rated class) [µM] | IC50 (human mTOR enzyme; numeric value) [µM] | IC50 ([1]; numeric value) [µM] | Compound
16 | 0.001 to 0.1 | 0.1 to 1 | – | – | Nc1c(Br)c(C2CCC(O)(CO)CC2)nc2c(-c3cnc4ccc(F)cc4c3)cnn12 (stereo not shown) [Compound 136, 4-(7-amino-6-bromo-3-(6-fluoroquinolin-3-yl)pyrazolo[1,5-a]pyrimidin-5-yl)-1-(hydroxymethyl)cyclohexanol]
17 | 0.001 to 0.1 | 0.1 to 1 | – | – | Nc1c(Br)c([C@H]2CC[C@](O)(CCO)CC2)nc2c(-c3ccc(-c4ccccc4)nc3)cnn12 [Compound 137, (1S,4S)-4-(7-amino-6-bromo-3-(6-phenylpyridin-3-yl)pyrazolo[1,5-a]pyrimidin-5-yl)-1-(2-hydroxyethyl)cyclohexanol]
18 | 0.001 to 0.1 | 0.1 to 1 | – | – | CC(=O)c1c(C2CCC(O)(CO)CC2)nc2c(-c3ccc(-c4ccccc4)nc3)cnn2c1N (stereo not shown) [Compound 138, 1-(7-amino-5-(4-hydroxy-4-(hydroxymethyl)cyclohexyl)-3-(6-phenylpyridin-3-yl)pyrazolo[1,5-a]pyrimidin-6-yl)ethanone]
19 | 0.001 to 0.1 | 0.001 to 0.1 | – | – | CC(=O)c1c(C2CCC(O)(CO)CC2)nc2c(-c3cnn(-c4ccccc4)c3)cnn2c1N (stereo not shown) [Compound 141, 1-(7-amino-5-(4-hydroxy-4-(hydroxymethyl)cyclohexyl)-3-(1-phenyl-1H-pyrazol-4-yl)pyrazolo[1,5-a]pyrimidin-6-yl)ethanone]
20 | 0.001 to 0.1 | 0.001 to 0.1 | – | – | CC(=O)c1c(C2CCC(O)(CO)CC2)nc2c(-c3cnc4ccc(F)cc4c3)cnn2c1N (stereo not shown) [Compound 142, 1-(7-amino-3-(6-fluoroquinolin-3-yl)-5-(4-hydroxy-4-(hydroxymethyl)-cyclohexyl)-pyrazolo-[1,5-a]pyrimidin-6-yl)ethanone]
21 | 0.001 to 0.1 | 1 to 2 | – | – | CC(=O)c1c(C2CCC(O)(CO)CC2)nc2c(-c3ccc(-c4cccnc4)nc3)cnn2c1N (stereo not shown) [Compound 143, 1-(3-(2,3′-bipyridin-5-yl)-7-amino-5-(4-hydroxy-4-(hydroxymethyl)-cyclohexyl)-pyrazolo-[1,5-a]pyrimidin-6-yl)ethanone]
22 | 0.001 to 0.1 | 1 to 2 | – | – | CC(=O)c1c(C2CCC(O)(CO)CC2)nc2c(-c3ccc(-c4cnn(C)c4)nc3)cnn2c1N (stereo not shown) [Compound 145, 1-(7-amino-5-(4-hydroxy-4-(hydroxymethyl)-cyclohexyl)-3-(6-(1-methyl-1H-pyrazol-4-yl)pyridin-3-yl)pyrazolo[1,5-a]pyrimidin-6-yl)ethanone]
23 | 0.001 to 0.1 | 2 to 5 | – | – | CC(=O)c1c(N)n2ncc(-c3cnn(-c4cnn(C)c4)c3)c2nc1[C@H]1CC[C@@](O)(CO)CC1 [Compound 148, 1-(7-amino-5-((1R,4R)-4-hydroxy-4-(hydroxymethyl)cyclohexyl)-3-(1′-methyl-1′H-1,4′-bipyrazol-4-yl)pyrazolo[1,5-a]pyrimidin-6-yl)ethanone]
